IC50 data for 14 compounds are collected here from US10981911B2, “Imidazopyrrolopyridine as inhibitors of the JAK family of kinases” (Janssen Pharmaceutica NV, priority 2016, dated 2021).

Each structure is given as a SMILES string.

By IC50 is commonly meant the midpoint of a concentration-inhibition curve.

Assay type in all cases: biochemical
One assay addresses JAK3-JH1JH2 (Homo sapiens (Human), UniProt P52333). Nature of the assay: Enzymatic inhibition assay (RapidFire HTMS), JAK3. The note with it: 150 μM ATP, 40 μM substrate. The text has this: (§1) LC/MS grade Water and Acetonitrile (ACN), were purchased from HoneyWell, Burdick & Jackson (Muskegon, Mich., USA). Dimethylsulfoxide 99.8% (DMSO) and Trifluoroacetic Acid 99.5% (TFA) were purchased from EMD Chemical (Gibbstown, N.J., USA). Adenosine triphosphate (ATP), 4-Morpholinepropanesulfonic acid (MOPS), Magnesium chloride (MgCl2), ethylenediaminetetraacetic acid (EDTA), dithiothreitol (DTT), formic acid >95% (FA) and Tween-20 were purchased from Sigma (St Louis, Mo., USA). 384-well polypropylene plates, Cat #781280 were purchased from Greiner (Monroe, N.C.), RapidFire™ cartridge A C4 Column (Agilent Technologies, Santa Clara, Calif.).
(§2) The HTMS experiments were performed in positive ionization mode on a RapidFire 300 instrument (Agilent Technologies, Santa Clara, Calif.), coupled with an ABSiex QTrap 4000 system with an Electrospray Ionization source (RF-MS) (Concord, ON, Canada). […] The entire system was operated using the RapidFire software interfaced with Analyst software for the mass spectrometer.
(§3) 11-point dosing series were made for each compound by serially diluting 1:3 or 1:4 in DMSO, with point 12 being a DMSO control. From the serial dilution plates, sample was transferred to a 384 wells assay plate (#781280, Greiner, Monroe, N.C.) using Labcyte Echo (Sunnyvale, Calif.), or Biosero ATS (San Diego, Calif.). The compounds were tested in duplicate. Column 12 was used for positive controls, and column 24 contained negative controls with no enzyme added. A compound from our internal collection, with inhibitory activity for JAK isoforms, was used as a reference compound. […] The Tyk2 enzyme was pre-incubated with 2 mM ATP for 30 min prior to the reaction initiation. Immediately after the addition of the enzyme to the reaction mixture, the plate was centrifuged at 1000 rpm for 1 minute and incubated at 25° C. for 45 minutes for JAK 3 and 90 minutes for JAK1, JAK2 and Tyk2. The reaction was quenched by the addition of 20 μL of 0.5% TFA containing 0.15 μM of internal standard peptide using Multidrop Combi reagent dispenser (Thermo Scientific, Waltham, Mass.). […] After the quench, the assay plate was centrifuged at 3000 rpm for 3 minutes and sealed with pierceable aluminum foil (Cat #06644-001, Agilent) using a PlateLoc (Agilent Technologies, Santa Clara, Calif.). The plates then were transferred on to the RapidFire for the MS analysis. Compound inhibition was assessed by a decrease of the phosphorylated product levels in sample wells compared to the non-inhibited enzyme reaction.
(§4) The sample analysis on the RapidFire was performed using a mobile phase A consisting of Water/TFA/FA (100:0.01:0.1, v/v/v), a mobile phase B consisting of ACN/Water/TFA/FA (80:20:0.01:0.1, v/v/v). […] The samples were aspirated directly from the 384 assay plate and delivered onto RF-MS microscale solid-phase C4 extraction cartridge (Type A). The undesired component such as salt, cofactor, detergent and large protein were washed out and the retained analytes (substrate, product and IS) were coeluted directly onto the ABSiex Qtrap 4000 system.

A further assay addresses JAK1-JH1JH2 (Homo sapiens (Human), UniProt P23458). Nature of the assay: Enzymatic inhibition assay (RapidFire HTMS), JAK1. As to conditions: 12.5 μM ATP, 200 μM substrate; read-out: JAK1-JH2JH1 IC50.
Excerpt: as §1, §2
as §3, with “compound. The final concentration of DMSO was ≤0.25% in a 20 μL reaction.” for “compound.”
as §4

The next assay concerns the target JAK2-JH1JH2 (Homo sapiens (Human), UniProt O60674). The experiment in a line: Enzymatic inhibition assay (RapidFire HTMS), JAK2. As to conditions: 30 μM ATP, 40 μM substrate.
Excerpt: as §1, §2
as §3, with “compound. The final concentration of DMSO was ≤0.25% in a 20 μL reaction.” for “compound.”
as §4

The next assay addresses Tyk2-JH1JH2 (Homo sapiens (Human), UniProt P29597, C1142A/C936A). Nature of the assay: Enzymatic inhibition assay (RapidFire HTMS), Tyk2. The note with it: 50 μM ATP, 200 μM substrate.
Excerpt: as §1, §2
as §3, with “compound. The final concentration of DMSO was ≤0.25% in a 20 μL reaction.” for “compound.”
as §4

Sequence of JAK3-JH1JH2 (P52333 512-1124): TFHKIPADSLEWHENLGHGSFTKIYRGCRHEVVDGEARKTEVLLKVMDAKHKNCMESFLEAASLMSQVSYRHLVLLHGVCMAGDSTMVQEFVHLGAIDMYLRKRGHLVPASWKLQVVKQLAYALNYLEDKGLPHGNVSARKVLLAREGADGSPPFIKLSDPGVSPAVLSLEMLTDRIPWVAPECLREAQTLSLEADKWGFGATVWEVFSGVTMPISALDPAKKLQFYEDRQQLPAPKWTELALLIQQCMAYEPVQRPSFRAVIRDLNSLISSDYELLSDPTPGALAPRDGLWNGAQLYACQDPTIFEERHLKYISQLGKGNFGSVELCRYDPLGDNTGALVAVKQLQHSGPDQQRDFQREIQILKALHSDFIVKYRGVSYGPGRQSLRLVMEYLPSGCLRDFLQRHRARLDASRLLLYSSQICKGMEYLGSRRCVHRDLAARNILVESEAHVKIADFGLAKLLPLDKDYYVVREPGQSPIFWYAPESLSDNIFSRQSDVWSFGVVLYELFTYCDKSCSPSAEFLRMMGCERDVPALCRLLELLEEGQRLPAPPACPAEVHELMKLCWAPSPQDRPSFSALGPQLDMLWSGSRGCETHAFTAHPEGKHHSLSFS
Sequence of Tyk2-JH1JH2 (P29597 580-1182 C936A/C1142A): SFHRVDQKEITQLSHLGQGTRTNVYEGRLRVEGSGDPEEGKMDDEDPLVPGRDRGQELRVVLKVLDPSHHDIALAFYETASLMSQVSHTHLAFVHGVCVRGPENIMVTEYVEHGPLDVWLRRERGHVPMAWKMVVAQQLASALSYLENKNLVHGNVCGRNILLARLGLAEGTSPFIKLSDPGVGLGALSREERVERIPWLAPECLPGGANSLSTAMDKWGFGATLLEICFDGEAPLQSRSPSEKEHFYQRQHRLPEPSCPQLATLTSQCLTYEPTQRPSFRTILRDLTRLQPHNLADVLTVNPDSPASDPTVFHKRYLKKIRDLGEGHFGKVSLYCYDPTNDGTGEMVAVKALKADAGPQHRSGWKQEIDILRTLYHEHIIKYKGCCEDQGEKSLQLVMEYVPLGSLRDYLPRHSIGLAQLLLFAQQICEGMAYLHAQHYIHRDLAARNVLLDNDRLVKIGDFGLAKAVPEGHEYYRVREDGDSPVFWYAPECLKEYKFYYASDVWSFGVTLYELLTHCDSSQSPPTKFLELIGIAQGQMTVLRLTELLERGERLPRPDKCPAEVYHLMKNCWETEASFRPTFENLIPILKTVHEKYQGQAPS
Sequence of JAK1-JH1JH2 (P23458 574-1154): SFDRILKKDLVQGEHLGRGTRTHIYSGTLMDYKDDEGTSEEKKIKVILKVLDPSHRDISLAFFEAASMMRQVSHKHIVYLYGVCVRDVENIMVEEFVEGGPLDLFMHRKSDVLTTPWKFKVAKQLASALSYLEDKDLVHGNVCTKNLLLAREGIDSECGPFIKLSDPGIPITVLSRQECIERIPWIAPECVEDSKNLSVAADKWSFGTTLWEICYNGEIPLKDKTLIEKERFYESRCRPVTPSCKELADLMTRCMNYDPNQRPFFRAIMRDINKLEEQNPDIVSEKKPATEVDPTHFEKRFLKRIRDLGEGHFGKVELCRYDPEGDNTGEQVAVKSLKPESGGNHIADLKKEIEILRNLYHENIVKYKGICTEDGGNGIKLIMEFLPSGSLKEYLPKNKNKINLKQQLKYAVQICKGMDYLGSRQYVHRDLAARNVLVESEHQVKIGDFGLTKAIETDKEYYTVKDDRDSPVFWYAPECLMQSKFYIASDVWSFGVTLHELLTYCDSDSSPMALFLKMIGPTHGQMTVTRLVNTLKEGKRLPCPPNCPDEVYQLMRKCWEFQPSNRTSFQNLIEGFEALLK
Sequence of JAK2-JH1JH2 (O60674 532-1132): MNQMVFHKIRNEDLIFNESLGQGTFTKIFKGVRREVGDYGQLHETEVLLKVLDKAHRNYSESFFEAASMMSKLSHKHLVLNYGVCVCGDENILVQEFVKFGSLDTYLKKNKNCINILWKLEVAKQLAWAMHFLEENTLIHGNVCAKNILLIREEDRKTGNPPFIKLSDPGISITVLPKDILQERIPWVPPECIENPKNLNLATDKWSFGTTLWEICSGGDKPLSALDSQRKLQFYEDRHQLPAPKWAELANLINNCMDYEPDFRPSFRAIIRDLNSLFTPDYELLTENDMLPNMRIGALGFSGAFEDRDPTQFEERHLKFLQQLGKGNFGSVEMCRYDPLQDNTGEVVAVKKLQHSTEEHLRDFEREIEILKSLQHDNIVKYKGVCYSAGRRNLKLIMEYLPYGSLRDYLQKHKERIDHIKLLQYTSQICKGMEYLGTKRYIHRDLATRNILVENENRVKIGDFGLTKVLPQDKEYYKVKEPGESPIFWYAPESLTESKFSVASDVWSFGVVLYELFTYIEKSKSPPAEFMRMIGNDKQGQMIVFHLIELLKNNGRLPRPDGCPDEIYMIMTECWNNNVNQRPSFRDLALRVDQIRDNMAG

Take `N#CC[C@H]1CC[C@H](n2c(CC(=O)N3CC(O)C3)nc3cnc4[nH]ccc4c32)CC1` [Ex. 18, 2-((1r,4r)-4-(2-(2-(3-Hydroxyazetidin-1-yl)-2-oxoethyl)imidazo[4,5-d]pyrrolo[2,3-b]pyridin-1(6H)-yl)cyclohexyl)acetonitrile]: the concentration for half-maximal inhibition (IC50) at JAK3-JH1JH2 amounted to 540 nM; at JAK1-JH1JH2 it was 0.1 nM; at JAK2-JH1JH2, 35.3 nM; against Tyk2-JH1JH2, 6.4 nM.

In the case of `N#CC[C@H]1CC[C@H](NC(=O)Cc2nc3cnc4[nH]ccc4c3n2[C@H]2CC[C@H](CC#N)CC2)CC1` [Ex. 19, N-((1r,4r)-4-(Cyanomethyl)cyclohexyl)-2-(1-((1r,4r)-4-(cyanomethyl)cyclohexyl)-1,6-dihydroimidazo[4,5-d]pyrrolo[2,3-b]pyridin-2-yl)acetamide], the IC50 at JAK3-JH1JH2 worked out at 31.8 nM; on JAK1-JH1JH2, 0.1 nM; against JAK2-JH1JH2, 2.4 nM; at Tyk2-JH1JH2, 4.4 nM.

Take `N#CC[C@H]1CC[C@H](n2c(CC(=O)Nc3ccccc3)nc3cnc4[nH]ccc4c32)CC1` [Ex. 20, 2-(1-((1r,4r)-4-(Cyanomethyl)cyclohexyl)-1,6-dihydroimidazo[4,5-d]pyrrolo[2,3-b]pyridin-2-yl)-N-phenylacetamide]: the IC50 against JAK3-JH1JH2 is 20.5 nM; at JAK1-JH1JH2 it was 0.1 nM; against JAK2-JH1JH2, 1.2 nM; at Tyk2-JH1JH2, 1.9 nM.

Regarding `N#CC[C@H]1CC[C@H](n2c(CC(=O)NC34CCC(C#N)(CC3)C4)nc3cnc4[nH]ccc4c32)CC1` [Ex. 23, N-(4-Cyanobicyclo[2.2.1]heptan-1-yl)-2-(1-((1r,4r)-4-(cyanomethyl)cyclohexyl)-1,6-dihydroimidazo[4,5-d]pyrrolo[2,3-b]pyridin-2-yl)acetamide], the IC50 on JAK3-JH1JH2 stood at 38.1 nM; at JAK1-JH1JH2, 0.1 nM; against JAK2-JH1JH2, 1.4 nM; at Tyk2-JH1JH2, 3.5 nM.

`N#CC[C@H]1CC[C@H](n2c(CC(=O)NCC3(O)COC3)nc3cnc4[nH]ccc4c32)CC1` [Ex. 24, 2-(1-((1r,4r)-4-(Cyanomethyl)cyclohexyl)-1,6-dihydroimidazo[4,5-d]pyrrolo[2,3-b]pyridin-2-yl)-N-((3-hydroxyoxetan-3-yl)methyl)acetamide]: the half-inhibitory concentration (IC50) against JAK3-JH1JH2 was found to be 57.5 nM; at JAK1-JH1JH2, 0.1 nM; on JAK2-JH1JH2, 4.9 nM; against Tyk2-JH1JH2 it was 3.3 nM.

Turning to `N#CC[C@H]1CC[C@H](n2c(CC(=O)N3CCC(N4CCOCC4)CC3)nc3cnc4[nH]ccc4c32)CC1` [Ex. 26, 2-((1r,4r)-4-(2-(2-(4-Morpholinopiperidin-1-yl)-2-oxoethyl)imidazo[4,5-d]pyrrolo[2,3-b]pyridin-1(6H)-yl)cyclohexyl)acetonitrile], the IC50 at JAK3-JH1JH2 turned out to be 106 nM; on JAK1-JH1JH2, 0.1 nM; on JAK2-JH1JH2, 6.1 nM; at Tyk2-JH1JH2, 2.7 nM.

On to `N#CC[C@H]1CC[C@H](n2c(CC(=O)N[C@H]3CC[C@H](CO)CC3)nc3cnc4[nH]ccc4c32)CC1` [Ex. 27, 2-(1-((1r,4r)-4-(Cyanomethyl)cyclohexyl)-1,6-dihydroimidazo[4,5-d]pyrrolo[2,3-b]pyridin-2-yl)-N-((1r,4r)-4-(hydroxymethyl)cyclohexyl)acetamide], for which the IC50 on JAK3-JH1JH2 worked out at 36.9 nM; on JAK1-JH1JH2 it was 0.1 nM; against JAK2-JH1JH2 it was 2.9 nM; against Tyk2-JH1JH2, 7.2 nM.

`N#CC[C@H]1CC[C@H](n2c(CC(=O)NC3CCCCC3)nc3cnc4[nH]ccc4c32)CC1` [Ex. 28, 2-(1-((1r,4r)-4-(Cyanomethyl)cyclohexyl)-1,6-dihydroimidazo[4,5-d]pyrrolo[2,3-b]pyridin-2-yl)-N-cyclohexylacetamide]: the IC50 against JAK3-JH1JH2 came to 32.7 nM; on JAK1-JH1JH2, 0.1 nM; on JAK2-JH1JH2, 2.4 nM; against Tyk2-JH1JH2, 3.5 nM.

For `N#CC[C@H]1CC[C@H](n2c(CC(=O)NCCO)nc3cnc4[nH]ccc4c32)CC1` [Ex. 29, 2-(1-((1r,4r)-4-(Cyanomethyl)cyclohexyl)-1,6-dihydroimidazo[4,5-d]pyrrolo[2,3-b]pyridin-2-yl)-N-(2-hydroxyethyl)acetamide], the 50% inhibitory concentration (IC50) at JAK3-JH1JH2 stood at 67.2 nM; on JAK1-JH1JH2, 0.1 nM; against JAK2-JH1JH2 it was 7.3 nM; against Tyk2-JH1JH2, 3.8 nM.

Regarding `N#CC[C@H]1CC[C@H](n2c(CNC(=N)c3ccccc3)nc3cnc4[nH]ccc4c32)CC1` [Ex. 30, N-((1-((1r,4r)-4-(Cyanomethyl)cyclohexyl)-1,6-dihydroimidazo[4,5-d]pyrrolo[2,3-b]pyridin-2-yl)methyl)benzimidamide], the IC50 against JAK3-JH1JH2 is 996 nM; at JAK1-JH1JH2, 0.2 nM; against JAK2-JH1JH2, 6.6 nM; on Tyk2-JH1JH2, 1.6 nM.

With `N#CC[C@H]1CC[C@H](n2c(-c3n[nH]cc3Cl)nc3cnc4[nH]ccc4c32)CC1` [Ex. 31, 2-((1r,4r)-4-(2-(4-Chloro-1H-pyrazol-3-yl)imidazo[4,5-d]pyrrolo[2,3-b]pyridin-1(6H)-yl)cyclohexyl)acetonitrile], the IC50 against JAK3-JH1JH2 was 121 nM; on JAK1-JH1JH2 it was 0.2 nM; on JAK2-JH1JH2, 5.5 nM; against Tyk2-JH1JH2, 3.7 nM.

`N#CC[C@H]1CC[C@H](n2c(CC(=O)NC34CC5CC(CC(C5)C3)C4)nc3cnc4[nH]ccc4c32)CC1` [Ex. 32, N-((3R,5R)-Adamantan-1-yl)-2-(1-((1r,4r)-4-(cyanomethyl)cyclohexyl)-1,6-dihydroimidazo[4,5-d]pyrrolo[2,3-b]pyridin-2-yl)acetamide]: the 50% inhibitory concentration (IC50) is 59.3 nM against JAK3-JH1JH2, 0.2 nM at JAK1-JH1JH2, 1.3 nM on JAK2-JH1JH2 and 2.8 nM at Tyk2-JH1JH2.

Turning to `N#CC[C@H]1CC[C@H](n2c(CC(=O)N[C@H]3CC[C@H](O)CC3)nc3cnc4[nH]ccc4c32)CC1` [Ex. 33, 2-(1-((1r,4r)-4-(Cyanomethyl)cyclohexyl)-1,6-dihydroimidazo[4,5-d]pyrrolo[2,3-b]pyridin-2-yl)-N-((1r,4r)-4-hydroxycyclohexyl)acetamide], the half-inhibitory concentration (IC50) at JAK3-JH1JH2 was 38 nM; at JAK1-JH1JH2, 0.2 nM; against JAK2-JH1JH2, 2.3 nM; against Tyk2-JH1JH2, 3.8 nM.

`N#CC[C@H]1CC[C@H](n2c(CC(=O)NCc3cnccn3)nc3cnc4[nH]ccc4c32)CC1` [Ex. 35, 2-(1-((1r,4r)-4-(Cyanomethyl)cyclohexyl)-1,6-dihydroimidazo[4,5-d]pyrrolo[2,3-b]pyridin-2-yl)-N-(pyrazin-2-ylmethyl)acetamide]: the 50% inhibitory concentration (IC50) at JAK3-JH1JH2 worked out at 107 nM; on JAK1-JH1JH2 it was 0.2 nM; on JAK2-JH1JH2, 3.6 nM; against Tyk2-JH1JH2, 4.5 nM.
